Data on 27 compounds can be found in patent US20210238162A1, “CHEMICAL COMPOUNDS” (GlaxoSmithKline Intellectual Property Development Limited, priority 2015, published 2021).

SMILES strings stand for the structures.

The first test relates to mdx mice. Kind of test: Functional repair following limb muscle injury in mdx mice (FIG. 2).
Settings: not given
The class given is in vivo.
On to `O=C(N[C@H]1CCNC1=O)c1cnc2cc(OC(F)F)c(F)cc2c1` [Example 48, (S)-7-(Difluoromethoxy)-6-fluoro-N-(2-oxopyrrolidin-3-yl)quinoline-3-carboxamide], for which the “protection and acceleration of functional repair dose response curves of PGDS Inhibition” value is “protection and acceleration of functional repair”.

For the next test, the system named is male C57Bl/6N mice. Kind of test: In vivo functional response to muscle injury (eccentric contraction-induced muscle fatigue). The settings on record: PO 1, 3 and 10 mg/kg BID beginning 10 min prior to eccentric contraction challenge, FIG. 1. Also on record: species or system mouse. The text has this:
(§1) Under anesthesia, the right hind limb of a mouse is restrained at the knee and the foot attached to a motorized footplate/force transducer. Needle electrodes are inserted into the upper limb, either side of the sciatic nerve and a current sufficient to elicit a maximal muscle contraction is applied. Muscle tension is produced by moving the footplate to lengthen the plantarflexor muscles while the limb is under maximal stimulation. This is repeated 60 times to fatigue the muscles of the lower limb. Anesthesia, limb immobilization and limb stimulation are then repeated at regular intervals to measure maximal isometric force in the recovering limb. 7 to 9 animals are tested for each test condition.
Turning to `CC(C)(O)[C@H]1CC[C@H](NC(=O)c2cnc3cc(OC(F)F)ccc3c2)CC1` [Example 6, 7-(Difluoromethoxy)-N-((trans)-4-(2-hydroxypropan-2-yl)cyclohexyl)quinoline-3-carboxamide], the “kinetics of recovery of maximal isometric force” value is on record as “acceleration in the kinetics of recovery”.

Still in this test, the particulars now being: PO 3 and 10 mg/kg BID, FIG. 1.
Regarding `CC(C)(O)[C@H]1CC[C@H](NC(=O)c2cnc3cc(OC(F)F)ccc3c2)CC1` [Example 6, 7-(Difluoromethoxy)-N-((trans)-4-(2-hydroxypropan-2-yl)cyclohexyl)quinoline-3-carboxamide], the “initial magnitude of the injury (isometric limb force 24-hours following protocol initiation)” value is reported as “reduced the initial magnitude of the injury”.

In a further test the target is T1, haematopoietic prostaglandin D synthase (H-PGDS) (Homo sapiens, UniProt O60760).
T1 construct: Full length human H-PGDS cDNA (Invitrogen Ultimate ORF IOH13026) was amplified by PCR; made in house; host or cells: E. coli BL21 (DE3*), vector pET22b+
T1 sequence (O60760 whole entry): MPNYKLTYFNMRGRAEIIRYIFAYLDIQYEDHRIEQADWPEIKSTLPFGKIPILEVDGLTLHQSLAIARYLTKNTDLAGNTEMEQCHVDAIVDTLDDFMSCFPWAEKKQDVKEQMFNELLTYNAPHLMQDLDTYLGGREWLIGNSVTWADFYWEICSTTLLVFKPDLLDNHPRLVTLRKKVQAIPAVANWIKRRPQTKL
Kind of test: H-PGDS RapidFire High Throughput Mass Spectrometry Assay. The class given is biochemical. Particulars: H-PGDS RapidFire MS assay, mean pIC50; read-out: Potency Range (mean pIC50) (converted). The procedure, abridged: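 PGH2 (~10 μM burst) generated in situ from arachidonic acid by FLAG-tagged human COX-2 (Sf9-expressed), then converted to PGD2 by full-length human His-tagged H-PGDS from E. coli. PGD2 and PGF2α (substrate surrogate) quantified by RapidFire SPE-triple quadrupole MS; percent conversion calculated.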
Turning to `O=C(N[C@H]1CCNC1=O)c1cnc2cc(OC(F)F)c(F)cc2c1` [Example 48, (S)-7-(Difluoromethoxy)-6-fluoro-N-(2-oxopyrrolidin-3-yl)quinoline-3-carboxamide], the IC50 was 10 to 79.4 nM.
As to `CC(C)Nc1cc2ncc(C(=O)N[C@H]3CC[C@H](C(C)(C)O)CC3)cc2cc1Cl` [Example 212, 6-Chloro-N-((trans)-4-(2-hydroxypropan-2-yl)cyclohexyl)-7-(isopropylamino)quinoline-3-carboxamide], the IC50 is less than 10 nM.
As to `CC(C)(O)[C@H]1CC[C@H](NC(=O)c2cnc3cc(NC4CC4)c(Cl)cc3c2)CC1` [Example 213, 6-Chloro-7-(cyclopropylamino)-N-((trans)-4-(2-hydroxypropan-2-yl)cyclohexyl)quinoline-3-carboxamide], the IC50 is less than 10 nM.
The same measure, in the same setting: to `O=C(N[C@H]1C[C@H](N2CC(O)(C(F)(F)F)C2)C1)c1cnc2cc(OC(F)F)c(Cl)cc2c1` [Example 214, 6-Chloro-7-(difluoromethoxy)-N-((trans)-3-(3-hydroxy-3-(trifluoromethyl)azetidin-1-yl)cyclobutyl)quinoline-3-carboxamide] belongs less than 10 nM.
For `CC(C)(O)[C@H]1CC[C@H](NC(=O)c2cnc3cc(OC(F)(F)F)c(Cl)cc3c2)CC1` [Example 215B, 6-Chloro-N-((trans)-4-(2-hydroxypropan-2-yl)cyclohexyl)-7-(trifluoromethoxy)quinoline-3-carboxamide], the IC50 is less than 10 nM.
The same measure, in the same setting: to `CC(C)(O)[C@H]1CC[C@H](NC(=O)c2cnc3c(Cl)c(OC(F)F)ccc3c2)CC1` [Example 216, 8-Chloro-7-(difluoromethoxy)-N-((trans)-4-(2-hydroxypropan-2-yl)cyclohexyl)quinoline-3-carboxamide] belongs 10 to 79.4 nM; to `CC(C)(O)[C@H]1CC[C@H](NC(=O)c2cnc3c(Cl)c(OC(F)F)c(Cl)cc3c2)CC1` [Example 217, 6,8-Dichloro-7-(difluoromethoxy)-N-((trans)-4-(2-hydroxypropan-2-yl)cyclohexyl)quinoline-3-carboxamide], less than 10 nM; to `CCOc1ccc2cc(C(=O)N[C@H]3CC[C@H](C(C)(C)O)CC3)cnc2c1Cl` [Example 218, 8-Chloro-7-ethoxy-N-(trans-4-(2-hydroxypropan-2-yl)cyclohexyl)quinoline-3-carboxamide], 10 to 79.4 nM.
On the same count and under the same terms, to `CC(C)(O)C(=O)N1CCC(NC(=O)c2cnc3cc(OC(F)F)c(Cl)cc3c2)CC1` [Example 220, 6-Chloro-7-(difluoromethoxy)-N-(1-(2-hydroxy-2-methylpropanoyl)piperidin-4-yl)quinoline-3-carboxamide] belongs less than 10 nM; to `CC(C)(O)C(=O)N1CC(NC(=O)c2cnc3cc(OC(F)F)c(Cl)cc3c2)C1` [Example 221, 6-Chloro-7-(difluoromethoxy)-N-(1-(2-hydroxy-2-methylpropanoyl)azetidin-3-yl)quinoline-3-carboxamide], 100 to 1000 nM; to `CC(C)(O)[C@H]1CC[C@H](NC(=O)c2cnc3cc(C4CC4(F)F)c(Cl)cc3c2)CC1` (stereo partly drawn) [Example 222, 6-Chloro-7-(2,2-difluorocyclopropyl)-N-((trans)-4-(2-hydroxypropan-2-yl)cyclohexyl)quinoline-3-carboxamide], 10 to 79.4 nM.
For the compound `O=C(N[C@H]1CC[C@](O)(C(F)(F)F)CC1)c1cnc2cc(OC(F)F)c(Cl)cc2c1` [Example 223, 6-Chloro-7-(difluoromethoxy)-N-((cis)-4-hydroxy-4-(trifluoromethyl)cyclohexyl)quinoline-3-carboxamide], the IC50 is 10 to 79.4 nM.
The same measure, in the same setting: to `CC(C)(O)C(=O)N1CCN(NC(=O)c2cnc3cc(OC(F)F)c(Cl)cc3c2)CC1` [Example 224, 6-Chloro-7-(difluoromethoxy)-N-(4-(2-hydroxy-2-methylpropanoyl)piperazin-1-yl)quinoline-3-carboxamide] belongs 10 to 79.4 nM.
Still for that read-out and setting: next, `C=Cc1cc2ncc(C(=O)N[C@H]3CC[C@H](C(C)(C)O)CC3)cc2cc1Cl` [Example 225, 6-Chloro-N-((trans)-4-(2-hydroxypropan-2-yl)cyclohexyl)-7-vinylquinoline-3-carboxamide]: 10 to 79.4 nM.
On to `CC(C)(O)C(=O)N[C@H]1C[C@H](NC(=O)c2cnc3cc(OC(F)F)c(Cl)cc3c2)C1` [Example 226, 6-Chloro-7-(difluoromethoxy)-N-(trans-3-(2-hydroxy-2-methylpropanamido)cyclobutyl)quinoline-3-carboxamide], for which the IC50 is 10 to 79.4 nM.
Consider `O=C(N[C@H]1CC[C@@](O)(C(F)(F)F)CC1)c1cnc2cc(OC(F)F)c(Cl)cc2c1` [Example 227, 6-Chloro-7-(difluoromethoxy)-N-((trans)-4-hydroxy-4-(trifluoromethyl)cyclohexyl)quinoline-3-carboxamide], for which the IC50 was 10 to 79.4 nM.
On the same count and under the same terms, next, `Cc1cc2cc(C(=O)N[C@H]3CC[C@H](C(C)(C)O)CC3)cnc2c(Cl)c1OC(F)F` [Example 228, 8-Chloro-7-(difluoromethoxy)-N-((trans)-4-(2-hydroxypropan-2-yl)cyclohexyl)-6-methylquinoline-3-carboxamide]: 10 to 79.4 nM; `Cc1c(OC(F)F)c(Cl)cc2cc(C(=O)N[C@H]3CC[C@H](C(C)(C)O)CC3)cnc12` [Example 229, 6-Chloro-7-(difluoromethoxy)-N-((trans)-4-(2-hydroxypropan-2-yl)cyclohexyl)-8-methylquinoline-3-carboxamide]: 10 to 79.4 nM; `CC(C)(F)c1cc2ncc(C(=O)N[C@H]3CC[C@H](C(C)(C)O)CC3)cc2cc1Cl` [Example 230, 6-Chloro-7-(2-fluoropropan-2-yl)-N-((trans)-4-(2-hydroxypropan-2-yl)cyclohexyl)quinoline-3-carboxamide]: less than 10 nM.
Turning to `CC(F)(F)c1cc2ncc(C(=O)N[C@H]3CC[C@H](C(C)(C)O)CC3)cc2cc1Cl` [Example 231, 6-Chloro-7-(1,1-difluoroethyl)-N-((trans)-4-(2-hydroxypropan-2-yl)cyclohexyl)quinoline-3-carboxamide], the IC50 was less than 10 nM.
The same measure, in the same setting: to `O=C(N[C@H]1C[C@](O)(C(F)(F)F)C1)c1cnc2cc(OC(F)F)c(Cl)cc2c1` [Example 232, 6-Chloro-7-(difluoromethoxy)-N-((1s,3s)-3-hydroxy-3-(trifluoromethyl)cyclobutyl)quinoline-3-carboxamide] belongs less than 10 nM.
Consider `O=C(N[C@H]1CC[C@](O)(C(F)F)CC1)c1cnc2cc(OC(F)F)c(Cl)cc2c1` [Example 233, 6-Chloro-7-(difluoromethoxy)-N-((1s,4s)-4-(difluoromethyl)-4-hydroxycyclohexyl)quinoline-3-carboxamide], for which the IC50 was 10 to 79.4 nM.
Regarding `O=C(N[C@H]1CC[C@@](O)(C(F)F)CC1)c1cnc2cc(OC(F)F)c(Cl)cc2c1` [Example 234, 6-Chloro-7-(difluoromethoxy)-N-((1r,4r)-4-(difluoromethyl)-4-hydroxycyclohexyl)quinoline-3-carboxamide], the IC50 was 10 to 79.4 nM.
On the same count and under the same terms, to `CC(C)(O)[C@H]1CC[C@H](NC(=O)c2cnc3c(Cl)c(OC(F)F)c(F)cc3c2)CC1` [Example 235, 8-Chloro-7-(difluoromethoxy)-6-fluoro-N-(trans-4-(2-hydroxypropan-2-yl)cyclohexyl)quinoline-3-carboxamide] belongs 10 to 79.4 nM; to `CC(C)(O)[C@H]1CC[C@H](NC(=O)c2cnc3c(F)c(OC(F)F)c(Cl)cc3c2)CC1` [Example 236, 6-Chloro-7-(difluoromethoxy)-8-fluoro-N-(trans-4-(2-hydroxypropan-2-yl)cyclohexyl)quinoline-3-carboxamide], less than 10 nM.
On to `O=C(NC1CCc2ccccc2NC1=O)c1cnc2cc(OC(F)F)c(Cl)cc2c1` (stereo not drawn) [Example 237, 6-Chloro-7-(difluoromethoxy)-N-(2-oxo-2,3,4,5-tetrahydro-1H-benzo[b]azepin-3-yl)quinoline-3-carboxamide], for which the IC50 was less than 10 nM.

Staying with this test, now noted: in at least one experimental run; read-out: H-PGDS pIC50 value (converted).
As to `O=C(N[C@H]1C[C@H](N2CC(O)(C(F)(F)F)C2)C1)c1cnc2cc(OC(F)F)c(Cl)cc2c1` [Example 214, 6-Chloro-7-(difluoromethoxy)-N-((trans)-3-(3-hydroxy-3-(trifluoromethyl)azetidin-1-yl)cyclobutyl)quinoline-3-carboxamide], the IC50 is 6.31 nM.
As to `CC(C)(O)[C@H]1CC[C@H](NC(=O)c2cnc3cc(C4CC4(F)F)c(Cl)cc3c2)CC1` (stereo partly drawn) [Example 222, 6-Chloro-7-(2,2-difluorocyclopropyl)-N-((trans)-4-(2-hydroxypropan-2-yl)cyclohexyl)quinoline-3-carboxamide], the IC50 was 63.1 nM.

The test system of a further test is male C57BL/mdx mice. Kind of test: In vivo functional response to eccentric contraction-induced muscle damage in mdx mice (Duchenne Muscular Dystrophy model). Also on record: species or system mouse. Particulars: 30 mg/kg BID; 8 month-old male C57BL/mdx mice; FIG. 2.
Excerpt: as §1
The force deficit and recovery kinetics following eccentric contraction-induced muscle damage was also evaluated in middle-aged (8 month-old) male C57BL/mdx mice, a preclinical model of Duchenne Muscular Dystrophy. In this dystrophin-null background, the protocol elicited a greater functional deficit (˜75%) and a protracted recovery interval, as shown in the eccentric vehicle controls.
As for `O=C(N[C@H]1CCNC1=O)c1cnc2cc(OC(F)F)c(F)cc2c1` [Example 48, (S)-7-(Difluoromethoxy)-6-fluoro-N-(2-oxopyrrolidin-3-yl)quinoline-3-carboxamide], the “force deficit at 24-hours” value is on record as “significantly blunted the force deficit at 24-hours”; the “rate and extent of functional recovery” value was “improved both the rate and extent of functional recovery”.
